Test results reported in patent publication US20260284071A1, “CONTROLLING HOMEOSTATIC REGULATORY CIRCUITRY IN HYPOTHALAMUS” (The Johns Hopkins University, priority 2021, published 2026).
“Also recorded” adds a separate entry of the source.

Tests used:
[1] = cited from earlier work
[2] = system: Shh signaling; experiment: Activation of Shh signaling with SAG in juvenile control Rax-CreER;CAG-lsl-Sun1-GFP mice: tanycyte-derived neurogenesis; conditions: juvenile mice (P10-12), 10 mg/kg i.p.
Procedure: Vehicle controls were performed in parallel. To quantify levels of tanycyte proliferation and neurogenesis, 50 mg/kg 5-Ethynyl-2′-deoxyuridine (EdU) was delivered via three once-daily i.p. injections beginning on the first day of treatment. Four days after the final treatment at P16, immunohistochemistry was performed on 25 μm hypothalamic brain sections to quantify the levels of tanycyte proliferation and tanycyte-derived neurogenesis. The number of Edu+/GFP+/HuC/D+ tanycyte-derived neurons in the DMN, VMN, ArcN, and ME of the hypothalamus were then quantified.
• 1) Dissolved in 5 mg Sag with 1 ml of 1×PBS. • 2) Dilute stock to 1 ug/1 ul stock in 1×PBS that is 200 ul of 5 mg/ml stock into 800 ul of 1× PBS. • 3) if animal is 10 g then it will get 10 ug per gram so that is 100 ug/100 ul of 1 ug/1 ul stock.

[3] = system: Shh signaling; conditions: Nfia/b/x-deficient mice
Procedure: 10 μg/g Cyclopamine was injected from P8 to P16 on alternative days. 100 μg/g body weight BrdU was injected together from the 3rd injection for 5 consecutive days. Control mice were treated with the corresponding vehicle solution.
All cell counts were performed blindly and manually by five independent observers using Fiji/ImageJ software. […] Initially, cell numbers were normalized by the size (mm) of hypothalamic nuclei measured. […] All values are expressed as mean±S.E.M. Comparisons were analyzed by two-tailed Student's t-test using Microsoft Excel unless stated otherwise. A p-value of <0.05 was considered statistically significant.

[4] = system: leptin receptor Lepr; experiment: Leptin injection: pStat3 induction in tanycyte-derived neurons of Nfia/b/x-deficient mice; assay type: in vivo; conditions: P90 fasted mice, 3 mg/kg i.p., 45 minutes
Procedure: At P45, 4.4% of tanycyte-derived neurons in the GABA_2 cluster expressed the leptin receptor Lepr (FIG. 5B), despite Lepr being essentially undetectable in tanycytes themselves, as previously reported (19). As a result, it was tested whether tanycyte-derived neurons were capable of responding to leptin signaling. P90 mice that had undergone an overnight fast were injected i.p. with 3 mg/kg leptin, and sacrificed after 45 minutes, providing sufficient time for leptin-responsive neurons throughout the hypothalamus to induce pStat3 immunoreactivity (35, 36). […] A total of 42.3 (2.5) % of parenchymal tanycyte-derived neurons in DMH and ArcN show pStat3 induction under these conditions, along with 22.3 (±3.9) % of tanycyte-derived neurons in the subventricular region (FIG. 5J), confirming that a subset of tanycyte-derived neurons are leptin-responsive.
After brief washing with 1×PBS to remove the antifreeze solution, sections were mounted on Superfrost Plus slides (Fisher Scientific) before starting the immunohistochemistry and dried at room temperature for 30 min. To ensure adequate fixation for nuclear staining, sections were immersed into the fixative solution for 10 min at this point. Antigen retrieval was performed by incubating the slides with the prewarmed sodium citrate buffer (10 mM sodium citrate, pH 6.0) in an 80° C. water bath for 30 min. […] After finishing the first round of immunostaining, the fluorescence signal was crosslinked by incubation in 2% PFA for 10 min, followed by either EdU staining using the Click-iT EdU detection kit conjugated with Alexa Fluor 647 (ThermoFisher #C10340) or BrdU antibody staining. […]
P45 male mice were exposed to ambient heat (38° C.) for 4 hours (67) by incubating in a prewarmed light-controlled cabinet in the rodent metabolism core facility at the Center for Metabolism and Obesity Research of the Johns Hopkins University School of Medicine. During the procedure, mice were provided ad libitum access to water and food and carefully monitored. […]

[5] = 10 μg/g i.p. every 2 days P8-P16, compared to vehicle controls

## CNC1CCC(N(Cc2cccc(-c3ccncc3)c2)C(=O)c2sc3ccccc3c2Cl)CC1 (stereo not drawn) [SAG]
[1]
  blood-brain barrier permeability: efficiently cross the blood-brain barrier
[2]
  tanycyte proliferation as cause of the increase: does not appear to be due to stimulating tanycyte proliferation
[2]; 3 daily injections
  number of tanycyte-derived neurons: increase, including significant increases

## O=C1C2CN(Cc3ccc(Cl)cc3)CCN2C(=O)N1OC(=O)N1CCOc2ccccc21 (stereo not drawn) [ABC99, 7-(4-Chlorobenzyl)-1,3-dioxohexahydroimidazo[1,5-a]pyrazin-2(3H)-yl 2,3-dihydro-4Hbenzo[b][1,4]oxazine-4-carboxylate]
[1]
  blood-brain barrier permeability: blood-brain barrier-permeable; also recorded: efficiently cross the blood-brain barrier

## CC1=C2C[C@H]3[C@@H](CC=C4C[C@@H](O)CC[C@@]43C)[C@@H]2CC[C@]12O[C@@H]1C[C@H](C)CN[C@H]1[C@H]2C [Cyclopamine]
[3]; [5]
  numbers of GFP/NeuN double-positive neurons in VZ and HP: significant reduction
  numbers of total GFP-positive cells in ventricular zone (VZ) and hypothalamic parenchyma (HP): significant reduction
[3]; BrdU daily P12-P16, compared to vehicle controls
  BrdU incorporation: only significantly different in parenchymal neurons
[3]; i.p.
  neurogenesis (FIG. 4C): inhibits neurogenesis
[1]
  blood-brain barrier permeability: blood-brain barrier-permeable

B1: leptin: Recombinant Murine Leptin (PeproTech #450-31) (protein, UniProt P41160 22-167, looked up)
Leptin: VPIQKVQDDTKTLIKTIVTRINDISHTQSVSAKQRVTGLDFIPGLHPILSLSKMDQTLAVYQQVLTSLPSQNVLQIANDLENLRDLLHLLAFSKSCSLPQTSGLQKPESLDGVLEASLYSTEVVALSRLQGSLQDILQQLDVSPEC
[4]
  pStat3 immunoreactivity in GFP-positive tanycyte-derived neurons: Robust induction
  parenchymal tanycyte-derived neurons in DMH and ArcN showing pStat3 induction: 42.3 (2.5) %
  tanycyte-derived neurons in the subventricular region showing pStat3 induction: 22.3 (±3.9) %
